Experimental data as given in patent US9302999B2, “Substituted triazoles as herbicides” (E. I. DU PONT DE NEMOURS AND COMPANY, priority 2012, dated 2016).

Legend:
Format in all cases: in vivo
[1] = system: chickweed (common chickweed, Stellaria media); assay: Test D pre-/postemergence: chickweed; details: Postemergence
From the text: Seeds of plant species selected from bluegrass (annual bluegrass, Poa annua), blackgrass (Alopecurus myosuroides), canarygrass (Phalaris minor), chickweed (common chickweed, Stellaria media), galium (catchweed bedstraw, Galium aparine), bromegrass, downy (downy bromegrass, Bromus tectorum), field poppy (Papaver rhoeas), field violet (Viola arvensis), foxtail, green (green foxtail, Setaria viridis), deadnettle (henbit deadnettle, Lamium amplexicaule), ryegrass, Italian (Italian ryegrass, Lolium multiflorum), kochia (Kochia scoparia), lambsquarters (Chenopodium album), oilseed rape (Brassica napus), pigweed (Amaranthus retroflexus), Russian thistle (Salsola iberica), chamomile (scentless chamomile, Matricaria inodora), speedwell (bird's-eye speedwell, Veronica persica), barley, spring (spring barley, Hordeum vulgare), wheat, spring (spring wheat, Triticum aestivum), buckwheat, wild (wild buckwheat, Polygonum convolvulus), mustard, wild (wild mustard, Sinapis arvensis), oat, wild (wild oat, Avena fatua), radish, wild (wild radish, Raphanus raphanistrum), windgrass (Apera spica-venti), barley, winter (winter barley, Hordeum vulgare), and wheat, winter (winter wheat, Triticum aestivum) were planted into a silt loam soil and treated preemergence with test chemicals formulated in a non-phytotoxic solvent mixture which included a surfactant. At the same time, these same crop and weed species were planted in pots containing the planting medium comprising spaghnum peat moss, vermiculite, wetting agent and starter nutrients and treated with postemergence applications of the test chemicals formulated in the same manner. Plants ranged in height from 2 to 18 cm (1- to 4-leaf stage).
(§1) Treated plants and controls were maintained in a controlled growth environment for 14 to 21 days after which time all species were compared to controls and visually evaluated. Plant response ratings, summarized in Table D, are based on a scale of 0 to 100 where 0 is no effect and 100 is complete control. A dash (-) response means no test result.

[2] = system: woolly cupgrass (Eriochloa villosa); assay: Test C pre-/postemergence: woolly cupgrass
From the text: (§2) Seeds of plant species selected from blackgrass (Alopecurus myosuroides), bromegrass, downy (downy bromegrass, Bromus tectorum), foxtail, green (green foxtail, Setaria viridis), ryegrass, Italian (Italian ryegrass, Lolium multiflorum), winter wheat (Triticum aestivum), wild oat (Avena fatua), galium (catchweed bedstraw, Galium aparine), bermudagrass (Cynodon dactylon), surinam grass (Brachiaria decumbens), cocklebur (common cocklebur, Xanthium strumarium), corn (Zea mays), large crabgrass (Digitaria sanguinalis), woolly cupgrass (Eriochloa villosa), foxtail, giant (giant foxtail, Setaria faberii), goosegrass (Eleusine indica), johnsongrass (Sorghum halepense), kochia (Kochia scoparia), lambsquarters (Chenopodium album), morningglory (Ipomoea coccinea), nightshade (eastern black nightshade, Solanum ptycanthum), nutsedge, yellow (yellow nutsedge, Cyperus esculentus), pigweed (Amaranthus retroflexus), ragweed (common ragweed, Ambrosia elation), soybean (Glycine max), common (oilseed) sunflower (Helianthus annuus), Russian thistle (Salsola kali) and velvetleaf (Abutilon theophrasti) were planted into a blend of loam soil and sand and treated preemergence with test chemicals formulated in a non-phytotoxic solvent mixture which included a surfactant.
(§3) At the same time, plants selected from these crop and weed species and also barley (winter barley, Hordeum vulgare), canarygrass (Phalaris minor), chickweed (common chickweed, Stellaria media) windgrass (Apera spica-venti) and deadnettle (henbit deadnettle, Lamium amplexicaule) were planted in pots containing Redi-Earth® planting medium (Scotts Company, 14111 Scottslawn Road, Marysville, Ohio 43041) comprising spaghnum peat moss, vermiculite, wetting agent and starter nutrients and treated with postemergence applications of test chemicals formulated in the same manner. Plants ranged in height from 2 to 18 cm (1- to 4-leaf stage) for postemergence treatments.
as §1, with “greenhouse” for “controlled growth environment”, “13” for “14”, “15 days,” for “21 days”, “C,” for “D,”

[3] = system: pigweed (Amaranthus retroflexus); assay: Test D pre-/postemergence: pigweed
Method in brief: (§4)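 Scores run from 0 (no effect) to 100 (complete control), assigned by visual comparison with controls after 14 to 21 days in a controlled environment. Both preemergence application to silt loam and postemergence application to 1- to 4-leaf plants were tested.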

[4] = system: Russian thistle (Salsola kali); assay: Test C pre-/postemergence: Russian thistle; details: Preemergence
From the text: as §2, §3
as §1, with “greenhouse” for “controlled growth environment”, “13” for “14”, “15 days,” for “21 days”, “C,” for “D,”

[5] = system: barley, winter (winter barley, Hordeum vulgare); assay: Test D pre-/postemergence: barley, winter
Method in brief: as §4

[6] = system: speedwell (bird's-eye speedwell, Veronica persica); assay: Test D pre-/postemergence: speedwell
Method in brief: as §4

[7] = system: deadnettle (henbit deadnettle, Lamium amplexicaule); assay: Test C postemergence: deadnettle
From the text: as §3
as §1, with “greenhouse” for “controlled growth environment”, “13” for “14”, “15 days,” for “21 days”, “C,” for “D,”

[8] = system: barnyardgrass (Echinochloa crus-galli); assay: Test B flooded paddy: barnyardgrass; details: Flood; 250 g ai/ha; applied to paddy water at 2-leaf stage; visually evaluated after 13 to 15 days
Method in brief: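 2-leaf plants; pots flooded 3 cm over soil; compound added to paddy water, depth kept constant. Greenhouse 13–15 d. Visual rating vs controls, 0–100 scale (100 = complete control); dash = no result.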

[9] = 31 g ai/ha, scale 0 to 100 (0 no effect, 100 complete control)
[10] = 62 g ai/ha, scale 0 to 100 (0 no effect, 100 complete control)
[11] = 125 g ai/ha, scale 0 to 100, 0 no effect, 100 complete control
[12] = Postemergence, 31 g ai/ha, scale 0 to 100 (0 no effect, 100 complete control)
[13] = Postemergence, 62 g ai/ha, scale 0 to 100 (0 no effect, 100 complete control)
[14] = Postemergence, 125 g ai/ha, scale 0 to 100, 0 no effect, 100 complete control
[15] = Postemergence, 250 g ai/ha, scale 0 to 100
[16] = Postemergence, 250 g ai/ha, scale 0 to 100 (0 no effect, 100 complete control)
[17] = Postemergence, 16 g ai/ha, scale 0 to 100
[18] = Preemergence, 16 g ai/ha, scale 0 to 100 (0 no effect, 100 complete control)
[19] = Preemergence, 31 g ai/ha, scale 0 to 100 (0 no effect, 100 complete control)
[20] = Preemergence, 62 g ai/ha, scale 0 to 100
[21] = Preemergence, 125 g ai/ha, scale 0 to 100
[22] = Preemergence, 250 g ai/ha, scale 0 to 100
[23] = 31 g ai/ha, scale of 0 to 100, 0 is no effect, 100 is complete control
[24] = 62 g ai/ha, scale of 0 to 100, 0 is no effect, 100 is complete control
[25] = 250 g ai/ha, scale 0 to 100, 0 no effect, 100 complete control
[26] = Preemergence, 31 g ai/ha, scale of 0 to 100, 0 is no effect, 100 is complete control
[27] = Preemergence, 62 g ai/ha, scale of 0 to 100, 0 is no effect, 100 is complete control
[28] = Preemergence, 125 g ai/ha, scale 0 to 100, 0 no effect, 100 complete control
[29] = Preemergence, 250 g ai/ha, scale 0 to 100, 0 no effect, 100 complete control

Cc1nn(-c2ccc(F)cc2)nc1Cc1ccnc(C(F)(F)F)c1 [Compound 16, 4-[[2-(4-fluorophenyl)-5-methyl-2H-1,2,3-triazol-4-yl]methyl]-2-(trifluoromethyl)pyridine]
Plant response rating: Chickweed [1, 9]: 70 | Plant response rating: Chickweed [1, 10]: 90 | Plant response rating: Chickweed [1, 11]: 95 | Plant response rating: Chickweed ([1]; 250 g ai/ha, scale 0 to 100 (0 no effect, 100 complete control)): 95 | Plant response rating, Chickweed ([1]; 16 g ai/ha, scale 0 to 100): 40 | Plant response rating, Cupgrass, Woolly [2, 12]: 5 | Plant response rating, Cupgrass, Woolly [2, 13]: 20 | Plant response rating, Cupgrass, Woolly [2, 14]: 65 | Plant response rating, Cupgrass, Woolly [2, 15]: 75 | Plant response rating: Pigweed [3, 12]: 70 | Plant response rating: Pigweed [3, 13]: 80 | Plant response rating: Pigweed [3, 14]: 90 | Plant response rating: Pigweed [3, 16]: 100 | Plant response rating, Pigweed [3, 17]: 50 | Plant response rating, Pigweed [3, 18]: 25 | Plant response rating, Pigweed [3, 19]: 80 | Plant response rating, Pigweed [3, 20]: 80 | Plant response rating, Pigweed [3, 21]: 90 | Plant response rating, Pigweed [3, 22]: 100 | Plant response rating, Russian Thistle [4, 23]: 45 | Plant response rating, Russian Thistle [4, 24]: 100 | Plant response rating, Russian Thistle [4, 11]: 100 | Plant response rating, Russian Thistle [4, 25]: 100 | Plant response rating: Barley, Winter [5, 12]: 10 | Plant response rating: Barley, Winter [5, 13]: 10 | Plant response rating: Barley, Winter [5, 14]: 25 | Plant response rating: Barley, Winter [5, 16]: 40 | Plant response rating, Barley, Winter [5, 17]: 5 | Plant response rating, Barley, Winter [5, 18]: 0 | Plant response rating, Barley, Winter [5, 19]: 0 | Plant response rating, Barley, Winter [5, 20]: 5 | Plant response rating, Barley, Winter [5, 21]: 10 | Plant response rating, Barley, Winter [5, 22]: 25 | Plant response rating: Speedwell [6, 12]: 75 | Plant response rating: Speedwell [6, 13]: 85 | Plant response rating: Speedwell [6, 14]: 95 | Plant response rating: Speedwell [6, 16]: 100 | Plant response rating, Speedwell [6, 17]: 25 | Plant response rating, Speedwell [6, 19]: 20 | Plant response rating, Speedwell [6, 20]: 40 | Plant response rating, Speedwell [6, 21]: 100 | Plant response rating, Speedwell [6, 22]: 100 | Plant response rating, Deadnettle [7, 9]: 50 | Plant response rating, Deadnettle [7, 10]: 98 | Plant response rating, Deadnettle [7, 11]: 98 | Plant response rating, Deadnettle ([7]; 250 g ai/ha, scale 0 to 100): 100

Cc1nn(-c2ccc(C(F)(F)F)cc2)nc1Cc1ccnc(C(F)(F)F)c1 [Compound 47, 4-[[5-methyl-2-[4-(trifluoromethyl)phenyl]-2H-1,2,3-triazol-4-yl]methyl]-2-(trifluoromethyl)pyridine]
Plant response rating, Cupgrass, Woolly [2, 12]: 55 | Plant response rating, Cupgrass, Woolly [2, 13]: 65 | Plant response rating, Cupgrass, Woolly [2, 14]: 80 | Plant response rating, Cupgrass, Woolly [2, 15]: 90 | Plant response rating, Cupgrass, Woolly [2, 26]: 45 | Plant response rating, Cupgrass, Woolly [2, 27]: 80 | Plant response rating, Cupgrass, Woolly [2, 28]: 95 | Plant response rating, Cupgrass, Woolly [2, 29]: 98 | Plant response rating, Russian Thistle [4, 23]: 85 | Plant response rating, Russian Thistle [4, 24]: 100 | Plant response rating, Russian Thistle [4, 11]: 100 | Plant response rating, Russian Thistle [4, 25]: 100 | Plant response rating, Deadnettle [7, 9]: 95 | Plant response rating, Deadnettle [7, 10]: 100 | Plant response rating, Deadnettle [7, 11]: 100 | Plant response rating, Deadnettle ([7]; 250 g ai/ha, scale 0 to 100): 100

Fc1ccc(-n2nc(Cc3ccnc(C(F)(F)F)c3)c(OCC(F)(F)F)n2)cc1 [Compound 142]
Plant response rating, Barnyardgrass (0 to 100 scale, 0 is no effect, 100 is complete control) [8]: 70 | Plant response rating, Cupgrass, Woolly [2, 12]: 40 | Plant response rating, Cupgrass, Woolly [2, 13]: 40 | Plant response rating, Cupgrass, Woolly [2, 14]: 75 | Plant response rating, Cupgrass, Woolly [2, 15]: 85 | Plant response rating, Cupgrass, Woolly [2, 26]: 55 | Plant response rating, Cupgrass, Woolly [2, 27]: 70 | Plant response rating, Cupgrass, Woolly [2, 28]: 95 | Plant response rating, Cupgrass, Woolly [2, 29]: 98 | Plant response rating, Russian Thistle [4, 24]: 80 | Plant response rating, Russian Thistle [4, 11]: 90 | Plant response rating, Russian Thistle [4, 25]: 90 | Plant response rating, Deadnettle [7, 9]: 100 | Plant response rating, Deadnettle [7, 10]: 100 | Plant response rating, Deadnettle [7, 11]: 100 | Plant response rating, Deadnettle ([7]; 250 g ai/ha, scale 0 to 100): 100
